Consider 26 compounds from patent US8686178B2, “Derivative of 18β-glycyrrhetinic acid apt to suppress cancer cells” (Kaohsiung Medical University, priority 2011, dated 2014).

Data set [1] deals with NTUB1 cells. Nature of the data set: Trial (E): cell cycle progression by flow cytometry (propidium iodide). The class given is cell-based, human. On the set-up: Sub-G1 / G1: unit not given here. The conditions noted are these: 50 μM, 24 hours, NTUB1. On the procedure:
In order to determine a relationship between the derivatives of 18β-glycyrrhetinic acid of the present invention and cell cycle arrest, trial (E) is carried out by analyzing cell cycle progression by flow cytometry. […] After that, cell cycle progression of each group is determined respectively by incubating with 50 μg/mL propidium iodide (Sigma, Co) and 50 μg/mL RNase A (Sigma, Co) in PBS at room temperature for 30 min, and analyzing by FACScan flow cytometer and Cell Quest sofeware.
In general terms: Flow cytometry measures light scatter and fluorescence of single cells or particles in a stream.

Data set [2] relates to human bladder cancer cell line NTUB1. Nature of the data set: Trial (A): cytotoxic effect, IC50 by median-effect analysis. The class given is cell-based. Particulars: NTUB1 cells; for IC50: mean ± SD; for cytotoxic effect against cancer cell: with reference to TABLE 2. The source says: For the sake of proving therapeutic effects of the derivatives of 18β-glycyrrhetinic acid of the present invention, including 10, 11, 13-17 and 21-25, in treating of cancer, human bladder cancer cell line NTUB1, human prostate cancer cell line PC3 cataloged as CRL-1435 (reference to J. Formosan Med. Assoc. 1992; 91:608-13), and immortalized normal human urothelial cells SV-HUC1 cataloged as CRL-9520 are purchased from American Type Culture Collection (ATCC; Rockville, USA) and maintained in a culturing medium respectively till at a preferable density to carry out a serial of trials (comprising trial A to G) for evaluating cytotoxicities of the derivatives of 18β-glycyrrhetinic acid against cancer cells, and mechanisms thereof.
In the present invention, the NTUB1 and the PC3 is but not limit to be maintained in RPMI 1640 medium supplemented 10% fetal bovine serum (FBS), 100 unit/mL penicillin-G, 100 μg/mL streptomycin, and 2 mM L-glutamine, yet the SV-HUC1 is maintained in F12 medium supplemented with 10% fetal bovine serum (FBS), 100 unit/mL penicillin-G, 100 μg/mL streptomycin, and 2 mM L-glutamine, culturing at 37° C. in a humidified atmosphere containing 5% CO2 till at a density of 70% per well, followed by repeatedly suspending cells in each well with an ethylene diamine tetra-acetic acid buffer (EDTA buffer; Merck) and counting cell numbers.
In the present invention, the IC50 values of each group are presented as mean±standard deviation (SD).

Data set [3] has as its system NTUB1 cells. Nature of the data set: Trial (C): synergy with cisplatin, MTT assay. Type of data set: cell-based, human. Particulars: NTUB1, 72 hours; for cytotoxic effect applied individually (FIGS. 7, 8): single agent; for synergy with cisplatin (FIGS. 7, 8): 1-50 μM compound with 5/10 μM cisplatin. How it is done: Oncol: Semin. Orig. Invest. by maintaining the NTUB1 cells in various condition of medium (with reference to TABLE 3) at 37° C. for 72 hours, and determining cytotoxicities of each medium via MTT assay. In the trial (C), the viability rates of NTUB1 cells […] are also determined by the absorbance spectrometry at 540 nm with a MRX (DYNEXCO) microplate according to trial (B).

For data set [4], the system named is NTUB1 cells. Nature of the data set: Trial (F): mitochondrial membrane potential (JC-1) by flow cytometry. The class given is cell-based, human. Particulars: 10 μM, 30 minutes, JC-1, NTUB1. On the procedure:
In trial (F), mitochondrial membrane potential (MMP) in NTUB1 cells is measured according to a journal article published by Martin et al., at 2009 in PloS one, in which a dysfunction of the mitochondria caused by ROS induced MPP decrease is supposed.
Referring to TABLE 6, the NTUB1 cells at a density of 3×10^5 cells/ml are prepared and assigned into 5 groups, including F1 to F5, to incubate in 10 μM carbonyl cyanide 3-chlorophenylhydrazone (CCCP), and 10, 25 and 50 μM of 25 respectively, for 30 minutes, followed by adding 1 μM of 5,5′,6,6′-tetrachloro-1,1′,3,3′-tetraethylbenzimidaolylcarbocyanine iodide (JC-1) (Molecular Probes, Eugene, Oreg., USA) in each group. Then, the NTUB1 cells in each group are washed with PBS buffer for 3 times, collected in PBS/2% BSA, washed twice by centrifugating at 800 g, 5 minutes and resuspending in 0.3 mL PBS/2% BSA, and finally analyzed by a FACSCalibur flow cytometer (Becton Dickinson), with the FACSCalibur flow cytometer determining and calculating a ratio of JC-1 aggregates (red fluorescence) to JC-1 monomers (green fluorescence) based on levels of MMP in each group.

In data set [1], `OO` [Compound H2O2, H2O2, reference compound] came in with a G1 of 27.15, a G2/M of 20.18, an S of 23.84 and a Sub-G1 of 9.48.

One may read the IC50 as the concentration that gives 50% inhibition. `C=C(C)[C@@H]1CC[C@]2(C)[C@H](C(=O)C=C3[C@@H]4C[C@@](C)(C(=O)OCc5ccccc5)CC[C@]4(C)CC[C@]32C)[C@@]1(C)CCC(=O)NCC` [Compound 15, 3-ethyl carbamoyl-11-oxo-18β-3,4-seco-olean-4(23),12-dien-30-benzyl ester] registered an IC50 in data set [2] of 42.7 ± 11.2 µM.

As to `CC1(C(=O)OCc2ccccc2)CCC2(C)CCC3(C)C(=CC(=O)C4C5(C)CCC(=O)C(C)(C)C5CCC43C)C2C1` (stereo not drawn) [Compound 4], 20.2 ± 5.1 µM corresponded to half-maximal inhibition in data set [2] (IC50).

As for `C=C(C)[C@@H]1CC[C@]2(C)[C@H](C(=O)C=C3[C@@H]4C[C@@](C)(C(=O)Nc5ccccc5)CC[C@]4(C)CC[C@]32C)[C@@]1(C)CCC(=O)O` [Compound 27], in data set [2], the “cytotoxic effect against cancer cell” value is recorded as “significantly suppress the growth of cancer cells with a lower concentrate” and half-maximal inhibition (IC50) was put at 3.31 ± 0.61 µM.

On to `C=C(C)[C@@H]1CC[C@]2(C)[C@H](C(=O)C=C3[C@@H]4C[C@@](C)(C(=O)NC(C)C)CC[C@]4(C)CC[C@]32C)[C@@]1(C)CCC(=O)O` [Compound 19], for which the 50% inhibitory concentration (IC50) in data set [2] turned out to be 17.5 ± 2.11 µM.

`CC1(C(=O)OCc2ccccc2)CCC2(C)CCC3(C)C(=CC(=O)C4C5(C)CCC(=O)OC(C)(C)C5CCC43C)C2C1` (stereo not drawn) [Compound 7] yielded an IC50 in data set [2] of 57.6 ± 8.8 µM.

The compound `C=C(C)[C@@H]1CC[C@]2(C)[C@H](C(=O)C=C3[C@@H]4C[C@@](C)(C(=O)OCc5ccccc5)CC[C@]4(C)CC[C@]32C)[C@@]1(C)CCC(=O)NCCC` [Compound 16, 3-propylcarbamoyl-11-oxo-18β-3,4-seco-olean-4(23),12-dien 30-benzyl ester] registered an IC50 in data set [2] of 49.4 ± 11.5 µM.

As to `C=C(C)[C@@H]1CC[C@]2(C)[C@H](C(=O)C=C3[C@@H]4C[C@@](C)(C(=O)NC(C)C)CC[C@]4(C)CC[C@]32C)[C@@]1(C)CCC(=O)OC` [Compound 20, 30-Isopropylcarbamoyl-11-oxo-18β-3,4-seco-olean-4(23),12-diene 3-methyl ester], in data set [2], the concentration for half-maximal inhibition (IC50) was 13.1 ± 5.27 µM. In data set [3], the “cytotoxic effect applied individually (FIGS. 7, 8)” value is given as “cytotoxic effects against to cancer cells” and the “synergy with cisplatin (FIGS. 7, 8)” value is given as “dramatic synergy”.

`CC1(C(=O)Nc2ccccc2)CCC2(C)CCC3(C)C(=CC(=O)C4C5(C)CCC(=O)OC(C)(C)C5CCC43C)C2C1` (stereo not drawn) [Compound 26] came in with an IC50 in data set [2] of 16 ± 5.3 µM.

`COC(=O)C1(C)CCC2(C)CCC3(C)C(=CC(=O)C4C5(C)CCC(=O)OC(C)(C)C5CCC43C)C2C1` (stereo not drawn) [Compound 6] returned a half-maximal inhibitory concentration (IC50) in data set [2] of 24.3 ± 3.98 µM.

Consider `CC1(C(=O)O)CCC2(C)CCC3(C)C(=CC(=O)C4C5(C)CCC(=O)C(C)(C)C5CCC43C)C2C1` (stereo not drawn) [Compound 2], for which the midpoint of inhibition in data set [2], the IC50, lay at 18.6 ± 1.64 µM.

In turn, `C=C(C)C1CCC2(C)C(C(=O)C=C3C4CC(C)(C(=O)OCc5ccccc5)CCC4(C)CCC32C)C1(C)CCC(=O)OC(C)C` (stereo not drawn) [Compound 14, 3,4-seco-11-oxo-18β-olean-4(23),12-dien-3,30. dioic acid 3-isopropyl-30-benzyl ester] came in with a 50% inhibitory concentration (IC50) in data set [2] of 18.2 ± 1.58 µM.

As for `CC1(C)[C@@H](O)CC[C@]2(C)[C@H]3C(=O)C=C4[C@@H]5C[C@@](C)(C(=O)O)CC[C@]5(C)CC[C@@]4(C)[C@]3(C)CC[C@@H]12` [Compound 1, 18β-glycyrrhetinic acid], in data set [2], it took 27.3 ± 5.17 µM to reach half-maximal inhibition (IC50).

As to `C=C(C)[C@@H]1CC[C@]2(C)[C@H](C(=O)C=C3[C@@H]4C[C@@](C)(C(=O)OCc5ccccc5)CC[C@]4(C)CC[C@]32C)[C@@]1(C)CCC(=O)NC(C)C` [Compound 17, 3-isopropylcarbamoyl-11-oxo-18β-3,4-seco-olean-4(23), 12-dien 30-benzyl ester], in data set [2], half-maximal inhibition (IC50) required 30.1 ± 2.41 µM.

In data set [2], `CC1(C(=O)O)CCC2(C)CCC3(C)C(=CC(=O)C4C5(C)CCC(=O)OC(C)(C)C5CCC43C)C2C1` (stereo not drawn) [Compound 5] displayed a half-inhibitory concentration (IC50) of 73.5 ± 35.1 µM.

On to `C=C(C)[C@@H]1CC[C@]2(C)[C@H](C(=O)C=C3[C@@H]4C[C@@](C)(C(=O)OCc5ccccc5)CC[C@]4(C)CC[C@]32C)[C@@]1(C)CCC(=O)O` [Compound 9], for which, in data set [2], the “cytotoxic effect against cancer cell” value is recorded as “significantly suppress the growth of cancer cells with a lower concentrate” and the IC50 was determined as 2.34 ± 0.28 µM.

In turn, `C=C(C)[C@@H]1CC[C@]2(C)[C@H](C(=O)C=C3[C@@H]4C[C@@](C)(C(=O)OC)CC[C@]4(C)CC[C@]32C)[C@@]1(C)CCC(=O)NC(C)C` [Compound 11, 3-isopropyl carbamoyl-11-oxo-18β-3,4-seco-olean-4(23),12-dien 30-methyl ester] showed an IC50 in data set [2] of 31.4 ± 0.55 µM.

In turn, `CC(C)NC(=O)C1(C)CCC2(C)CCC3(C)C(=CC(=O)C4C5(C)CCC(=O)OC(C)(C)C5CCC43C)C2C1` (stereo not drawn) [Compound 18] displayed an IC50 in data set [2] of 25.7 ± 1.81 µM.

Compound `C=C(C)[C@@H]1CC[C@]2(C)[C@H](C(=O)C=C3[C@@H]4C[C@@](C)(C(=O)NC(C)C)CC[C@]4(C)CC[C@]32C)[C@@]1(C)CCC(=O)OC(C)C` [Compound 22, 30-isopropyl carbamoyl-11-oxo-18β-3,4-seco-olean-4(23),12-dien 3-isopropyl ester] yielded an IC50 in data set [2] of 29.2 ± 26.6 µM.

Consider `N#CC(C#N)=NNc1cccc(Cl)c1` [CCCP, carbonyl cyanide 3-chlorophenylhydrazone, reference compound], for which the “R1 (%)” value in data set [4] was 52.06%.

With `C=C(C)C1CCC2(C)C(C(=O)C=C3C4CC(C)(C(=O)OC)CCC4(C)CCC32C)C1(C)CCC(=O)OC(C)C` (stereo not drawn) [Compound 10, 3,4-seco-11-oxo-18β-olean-4(23),12-dien-3,30-dioic acid 3-isopropyl 30-methyl, ester], it took 25.3 ± 2.28 µM to reach half-maximal inhibition in data set [2] (IC50).

As to `C=C(C)[C@@H]1CC[C@]2(C)[C@H](C(=O)C=C3[C@@H]4C[C@@](C)(C(=O)OCc5ccccc5)CC[C@]4(C)CC[C@]32C)[C@@]1(C)CCC(=O)OC` [Compound 12, 3,4-seco-11-oxo-18β-olean-4(23), 12-dien-3,30-dioic acid 3-methyl-30-benzyl ester], in data set [2], the “cytotoxic effect against cancer cell” value is “significantly suppress the growth of cancer cells with a lower concentrate” and half-maximal inhibition (IC50) was put at 9.41 ± 2.72 µM. In addition, in data set [3], the “cytotoxic effect applied individually (FIGS. 7, 8)” value was “cytotoxic effects against to cancer cells” and the “synergy with cisplatin (FIGS. 7, 8)” value is listed as “dramatic synergy”.

`COC(=O)C1(C)CCC2(C)CCC3(C)C(=CC(=O)C4C5(C)CCC(=O)C(C)(C)C5CCC43C)C2C1` (stereo not drawn) [Compound 3] came in with a half-maximal inhibitory concentration (IC50) in data set [2] of 56.5 ± 14.3 µM.

In data set [2], `C=C(C)C1CCC2(C)C(C(=O)C=C3C4CC(C)(C(=O)OCc5ccccc5)CCC4(C)CCC32C)C1(C)CCC(=O)OCC` (stereo not drawn) [Compound 13, 3,4-seco-11-oxo-18β-olean-4(23),12-dien-3,30-dioic acid 3-ethyl,30-benzyl ester] registered an IC50 of 27.8 ± 6.48 µM.

In the case of `C=C(C)[C@@H]1CC[C@]2(C)[C@H](C(=O)C=C3[C@@H]4C[C@@](C)(C(=O)NC(C)C)CC[C@]4(C)CC[C@]32C)[C@@]1(C)CCC(=O)NCCC` [Compound 24, 30-isopropyl carbamoyl-11-oxo-18β-3,4-seco-olean-4(23), 12-dien 3-propyl carbamate], the IC50 in data set [2] is > 50 µM.

On to `C=C(C)[C@@H]1CC[C@]2(C)[C@H](C(=O)C=C3[C@@H]4C[C@@](C)(C(=O)OC)CC[C@]4(C)CC[C@]32C)[C@@]1(C)CCC(=O)O` [Compound 8], for which the IC50 in data set [2] stood at 20.7 ± 4.97 µM.
